Results published in patent US20030073654A1, “Stabilized transient gene expression” (Genespan Corporation, priority 1996, published 2003).
Values joined by “and” are separate entries in the source; they are usually repeats but may differ in a detail not shown here. Identical values can stand only once. Values belong to the compound of their own block, whether it stands above or below them.

How the values were obtained:
[1] = tested on: SW480 cells; assay: Assay for cytotoxicity (trypan blue viability, 8 day static culture); format: cell-based, human; settings: Table 13, protocol of Example 10
Experimental: 1. […] However, it should be understood that various types of cells vary in their sensitivity to different chemical compounds. Thus, while SW480 cells may be used as a convenient tool for determining biocompatible concentrations of the chemical compounds, it may be necessary to empirically adjust the concentrations determined with SW480 cells in order to optimize biocompatibility with other types of cells.
A number of chemical compounds were tested in 6-well plates according to the protocol described in Example 1 to determine the relationship between their cytotoxicity and their ability to promote the uptake and expression of foreign genes in SW480 cells. Unless otherwise noted, except for the control, all plates contained 4 mM L-glutamine as well as gentamicin to retard bacterial growth.
Cytotoxicity assays were performed as follows. SW480 cells (approximately 1×10^6 cells per well) were plated in 1 ml of RPMI in 6-well culture dishes at day zero in the presence of the chemical compound whose cytotoxicity was being tested. Twenty-four hours after seeding the wells, the RPMI medium was removed, and liposomes containing foreign DNA were added to the culture in 1 ml of OPTI-MEM medium, as described in Example 1. The transfection medium also contained the chemical compounds whose cytotoxicity was being tested. Control plates were included that were identical to the test plates, except that the test compounds were not present in the culture medium. Test and control cultures were grown under “static” conditions, i.e., the plates were not shaken, rotated, or otherwise agitated. Each day for a total of 8 days, the cells from one test well and one control well were harvested and viability assessed by staining with trypan blue. […] The chondroitin sulfate used here was as in Example 2.

[2] = tested on: SW480 cells; assay: Influence of polysaccharide size/type on transient expression (protocol of plate #6, polysaccharide substituted for chondroitin sulfate); format: cell-based, human; settings: for FACTOR G / FACTOR K / FACTOR X / Total β-gal (ng) from 2 × 10^4 Cells in 14 Days: Table 13; for effectiveness in enhancing transient expression: running text of Example 10
Experimental: A 15 plate experiment was conducted in which the chemical compounds indicated in Table 9 were added to the culture medium of SW480 cells that were transfected in 6-well plates as detailed in Example 1. […] The chondroitin sulfate used for these experiments was as in Example 2. The most efficacious formulations, in order of their effectiveness, were those used in plates 6, 3, 13 and 14. […] The following experiments were conducted to determine the effects of polysaccharide size on their effectiveness in enhancing transient expression. […] The chondroitin sulfate used for these comparisons was obtained either from Biorelease, or was prepared by treating large (>20 kDa) chondroitin sulfate (Type A) with alkali, then acid. The size of the non-purchased preparations was determined by electrophoretic comparison with Biorelease 4 kDa chondroitin sulfate using PhastSystem gels in accord with the manufacturer's instructions (Pharmacia). The results are shown in Table 11, in which the ranges observed for X and […] in the four trials are shown in parentheses below the averages. […] Table 12 also presents the results of the Limulus amebocyte lysate (LAL) endotoxin assay, expressed as endotoxin units per ml (Eu/ml), which was performed on all media used before, during and after transfection, but before adding serum. This assay provides a quantitative measure for Gram-negative bacterial endotoxin in aqueous solutions. […] The LAL results in Table 12 are those for the post-transfection media, assayed prior to adding serum. All solutions used for these experiments were prepared in a hood using standard aseptic procedures.

[3] = pH of aqueous solutions of the compounds; format: physicochemical; settings: stock solutions prepared in culture media diluted with deionized water
Experimental: The pH values shown in Table 1 were determined in aqueous solutions made by diluting stock solutions prepared in culture media with deionized water.

[4] = tested on: SW480 P3 (ATCC #CCL228) human colon carcinoma cells; assay: Screening assay for enhancement of transient expression (β-galactosidase gene, liposomal transfection, 6-well plates); format: cell-based; settings: for G Factor (G14): Table 1, values without asterisk, days 4-14 after transfection; for X Factor / K Factor: Table 1; for X Factor: cumulative β-galactosidase vs control, first four days after transfection, compound at the mM given in the table; for K Factor: ratio of first order rate constants of change in expression, control vs compound
Excerpt: These parameters are called the “X” factor, the “G” factor, and the “K” factor. [formula]
This factor reflects the extent to which a chemical compound added to a transfected cell enhances stabilizes transient expression for the first four days following transfection. […] For example, if expression is doubled in the presence of a compound, […]. […] X may be calculated similarly when the agent in question is a mixture of more than one chemical compound.
Cumulative protein expression, i.e., the values for “A” and “C”, is measured by summing the values measured daily in aliquots of the cultured cells.
2. G factors. G factors differ from the X factor only with respect to the time period evaluated. For calculating a G factor, the amount of protein expressed is measured from days 4-7 or days 4-14, where day 0 is the day on which the foreign DNA is added to the cells. The subscripts denote which of the two time periods provided the basis for measurement. […] As for the X factor, [formula]
3. K factor. The K factor is the ratio of the rate constants for the change in the foreign DNA expression in control transfected cells and in cells exposed to a chemical compound of the subject invention. K is determined according to the following equation: [formula]
wherein “k(DNA)” is the first order rate constant for the change in concentration of the protein expressed from the transgenic DNA, which is expressing protein as a function of time, i.e., [formula]
Values for k(DNA) are derived by using a computer program that plots the log of the foreign protein concentration against time, using the results of transgenic protein measurements that begin about 24 hours after the foreign DNA has been added to the cell. […] However, the program calculates a “best fit” line for each data set, and determines the slope of that portion of the resulting line that corresponds to the period during which protein production is changing. […] Thus, the slope is calculated during this period of decline to provide values for k(DNA) and K that can be compared for the purpose of comparing the efficacy of different chemical compounds.
SW480 P3 (ATCC #CCL228) human colon carcinoma cells (typically, 1×10^6 cells) were plated in the wells of a 6-well tissue culture plate. The number of wells plated reflected the number of days post-transfection during which the experiment would proceed. Each well contained 1 ml of complete media from a 30 ml stock solution containing: 26.4 ml RPMI tissue culture medium, 4 mM L-glutamine, 3.0 ml fetal bovine serum, and 10 μg/ml gentamicin. Cells were cultured at 37° C. in a CO2 incubator with 10% CO2 for 24 hours after being plated, during which time the cells adhered to the plates.
After the 24 hour pre-incubation step, the transfection step was carried out by removing the RPMI and adding 900 μL OPTI-MEM® (Gibco) medium containing 2 μg of VR1412 DNA (Vical, Inc., San Diego, Calif.), which expresses the bacterial β-galactosidase gene under the control of a cytomegalovirus promoter, and 8 μg of a mixture of cationic lipid (1,2-dimyristyloxyproply-3-dimethyl-hydroxyethyl ammonium bromide (e.g., “DMRIE/DOPE”) mixed in equimolar proportions with dioleoylphosphatidylethanolamine) to yield a lipid:DNA molar ratio of 0.99:1. It should be noted that typical transient transfection protocols employ 10 μg DNA per 10^6 cells, but the protocol described here uses less DNA in order to reduce toxicity to the cells. The plates were then incubated for 4 hours at 37° C.
After the 4 hour incubation step, 100 μl of heat deactivated fetal bovine serum (to stop transfection), plus 12.0 μl of 50 mg/ml gentamicin were added to each well.

Compound: CC(=O)N[C@H]1C(O)O[C@H](CO)[C@H](OS(=O)(=O)O)[C@@H]1O[C@@H]1OC(C(=O)O)=C[C@H](O)[C@H]1O (stereo partly drawn) [Chondro ΔDi-4S]
- Cytotoxic [1]: Yes
- Cytotoxic ([1]; listed as disaccharide units derived from Type A): cytotoxic
- FACTOR G [2]: 40.1
- FACTOR K [2]: 0.4
- FACTOR X [2]: −28.2
- Total β-gal (ng) from 2 × 10^4 Cells in 14 Days [2]: 184.7 ng

Compound: O=C[C@@H](O)[C@@H](O)[C@H](O)[C@H](O)CO [Mannose]
- Cytotoxic [1]: No
- FACTOR G [2]: 23.5
- FACTOR K [2]: 1.0
- FACTOR X [2]: −23.6
- Total β-gal (ng) from 2 × 10^4 Cells in 14 Days [2]: 730.4 ng
- effectiveness in enhancing transient expression [2]: effective in enhancing transient expression

Compound: MELANIN
- pH (H20) [3]: 3.45
- effect on transient expression [4]: significantly suppress transient expression

Compound: O=C(O)CCCC(=O)O [GLUTARIC ACID]
- pH (H20) [3]: 3.85
- G Factor (G14) [4]: −77
- X Factor [4]: 22

Compound: CCCCCCCCc1ccc(C(=O)O)cc1 [4-OCTYL BENZOIC ACID]
- pH (H20) [3]: 7.45
- G Factor (G14) [4]: −665
- X Factor [4]: −2314

Compound: C[C@H](N)C(=O)O [α-ALANINE]
- pH (H20) [3]: 7.27
- G Factor (G14) [4]: 35
- X Factor [4]: 31

Compound: N[C@@H](CS)C(=O)O [CYSTEINE]
- pH (H20) [3]: 7.24
- G Factor (G14) [4]: −50
- X Factor [4]: −35

Compound: CCc1ccc(C(=O)O)cc1 [4-ETHYLBENZOIC ACID]
- pH (H20) [3]: 6
- K Factor [4]: 1 and 2

Compound: NCC(=O)O [GLYCINE]
- pH (H20) [3]: 7.27
- G Factor (G14) [4]: 40
- X Factor [4]: −.34
- K Factor [4]: 2

Compound: CC(=O)N[C@H]1C(O)O[C@H](COS(=O)(=O)O)[C@H](O)[C@@H]1O[C@@H]1OC(C(=O)O)=C[C@H](O)[C@H]1O (stereo partly drawn) [Chondro ΔDi-6S]
- Cytotoxic [1]: No
- FACTOR G [2]: 39.0
- FACTOR K [2]: 1.3
- FACTOR X [2]: −32.7
- Total β-gal (ng) from 2 × 10^4 Cells in 14 Days [2]: 932.2 ng
- effectiveness in enhancing transient expression [2]: better results than the controls

Compound: O=C(O)c1ccccc1 [BENZOIC ACID]
- pH (H20) [3]: 4.21
- G Factor (G14) [4]: 28
- X Factor [4]: −3.1
- K Factor [4]: 1

Compound: N[C@@H](Cc1c[nH]c2ccccc12)C(=O)O [TRYPTOPHAN]
- pH (H20) [3]: 6.25
- G Factor (G14) [4]: 67
- X Factor [4]: 55
- K Factor [4]: 2

Compound: NCCCC[C@H](N)C(=O)O [L-LYSINE]
- pH (H20) [3]: 8.34
- G Factor (G7) ([4]; Table 1, days 4-7 after transfection): 9
- G Factor (G14) [4]: −10

Compound: CCOC(=O)CCCC(C)=O [ETHYL 4-ACETYLBUTYRATE]
- pH (H20) [3]: 5.98
- G Factor (G14) [4]: 58
- X Factor [4]: 51
- K Factor [4]: 1

Compound: N[C@@H](CCO)C(=O)O [HOMOSERINE]
- pH (H20) [3]: 7.4
- G Factor (G14) [4]: 39
- X Factor [4]: 77

Compound: CC(C)C[C@H](N)C(=O)O [LEUCINE]
- pH (H20) [3]: 7.88
- G Factor (G14) [4]: 32
- X Factor [4]: −13

Compound: Nc1ccc(C(=O)O)cc1 [4-AMINO-BENZOIC ACID]
- pH (H20) [3]: 7.67
- G Factor (G7) ([4]; Table 1, values marked with asterisk, days 4-7 after transfection): 96
- G Factor (G14) [4]: −12
- X Factor [4]: 52, 52
- K Factor [4]: 1, 1

Compound: O=C(O)CCC(=O)C(=O)O [α-KE[…]]
- pH (H20) [3]: 3.75
- G Factor (G14) [4]: 53
- X Factor [4]: 7.28

Now from value to compound, other results behind:

- pH (H20) [3]: 8.12
Compound: CC(C)[C@H](N)C(=O)O [VALINE]
- G Factor (G14) [4]: 40
- X Factor [4]: −18
- K Factor [4]: 2

- pH (H20) [3]: 7.39
Compound: Cn1cncc1C[C@H](N)C(=O)O [3-METHYL-L-HISTIDINE]
- G Factor (G14) [4]: 55
- X Factor [4]: −15

- pH (H20) [3]: 7.59
Compound: CCOC(=O)c1ccc(C(C)=O)cc1 [ETHYL 4-ACETYLBENZOATE]
- G Factor (G14) [4]: 42
- X Factor [4]: 49
- K Factor [4]: 1

- pH (H20) [3]: 6.81
Compound: O=S(=O)(O)CC(O)CN(CCO)CCO (stereo not drawn) [′3-[BIS(2HYDROXYETHYL AMINO)]-2-HYDROXYL-′1-PROPANE SULFONIC ACID]
- G Factor (G14) [4]: −10
- X Factor [4]: −55

- pH (H20) [3]: 8.32
Compound: NCCC(=O)N[C@@H](Cc1cnc[nH]1)C(=O)O [CARNOSINE]
- G Factor (G14) [4]: 35
- X Factor [4]: −8

- pH (H20) [3]: 4.2
Compound: N[C@@H](CCC(=O)O)C(=O)O [GLUTAMIC ACID]
- K Factor [4]: 2

- pH (H20) [3]: 7.4
Compound: N[C@@H](CO)C(=O)O [SERINE]
- G Factor (G14) [4]: 104
- X Factor [4]: 43
- K Factor [4]: 1

- pH (H20) [3]: 7.54
Compound: CN(CC(=O)O)C(=N)N [CREATINE]
- G Factor (G14) [4]: 28
- X Factor [4]: 0.34

- pH (H20) [3]: 7.14
Compound: NC(=O)CC[C@H](N)C(=O)O [L-GLUTAMINE]
- G Factor (G14) [4]: 23
- X Factor [4]: −13
